Counter-ions that a name gives are not always drawn.

In assay [1] the target is isolated recombinant JAK2 kinase domain (Homo sapiens (Human), UniProt O60674). The experiment in a line: JAK2 enzyme assay (Caliper LabChip, peptide phosphorylation). It counts as biochemical. As to conditions: 25 μM ATP.
Assay [2] has as its target isolated recombinant JAK1 kinase domain (Homo sapiens (Human), UniProt P23458). In words: JAK1 enzyme assay (Caliper LabChip, peptide phosphorylation). The format is biochemical. Conditions: isolated recombinant JAK1 kinase domain, 25 μM ATP.
For assay [3], the system named is JAK1-dependent STAT6 phosphorylation downstream of IL-13 stimulation in TF-1 human erythroleukemia cells. The experiment in a line: JAK1 pathway assay in TF-1 cells (IL-13-pSTAT6, MSD). As to conditions: Homo sapiens, TF-1, TF-1 cells, read-out: IL13-pSTAT6 EC50_TF-1. It counts as cell-based. The method in brief:
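TF-1 cells are starved of GM-CSF overnight and run in serum-free medium, while BEAS-2B cells stay in complete growth medium. Inhibition of STAT6 phosphorylation is measured by MSD.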

Sequence of isolated recombinant JAK2 kinase domain (O60674 849-1124): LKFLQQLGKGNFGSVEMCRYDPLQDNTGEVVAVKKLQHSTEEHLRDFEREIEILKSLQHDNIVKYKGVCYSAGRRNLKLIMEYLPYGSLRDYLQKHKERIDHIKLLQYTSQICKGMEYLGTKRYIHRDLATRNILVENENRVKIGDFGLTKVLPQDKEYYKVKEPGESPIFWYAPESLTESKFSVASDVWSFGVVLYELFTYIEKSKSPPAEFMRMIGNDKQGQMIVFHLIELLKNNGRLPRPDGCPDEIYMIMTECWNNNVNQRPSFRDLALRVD
Sequence of isolated recombinant JAK1 kinase domain (P23458 875-1153): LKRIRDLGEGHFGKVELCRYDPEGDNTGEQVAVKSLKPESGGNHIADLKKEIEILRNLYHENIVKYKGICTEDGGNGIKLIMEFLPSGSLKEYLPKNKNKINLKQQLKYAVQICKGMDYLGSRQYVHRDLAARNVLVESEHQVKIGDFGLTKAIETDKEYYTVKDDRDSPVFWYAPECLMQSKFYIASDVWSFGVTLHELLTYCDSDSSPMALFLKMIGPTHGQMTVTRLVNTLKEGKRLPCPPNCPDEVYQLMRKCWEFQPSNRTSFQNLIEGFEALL

Regarding `CN1CC[C@@H](n2cc(NC(=O)c3c(N)nn4cccnc34)c(-c3cc(Cl)ccc3OC(F)F)n2)C1` [Example 183, 2-amino-N-[3-[5-chloro-2-(difluoromethoxy)phenyl]-1-[(3R)-1-methylpyrrolidin-3-yl]pyrazol-4-yl]pyrazolo[1,5-a]pyrimidine-3-carboxamide], the results for the Ki in assay [1] and in assay [2] were 0.23 nM and 0.49 nM, respectively. Further, the EC50 in assay [3] came out at 6.8 nM.
The corresponding values for `O=C(Nc1cn(CC(=O)N2CCC(NCCc3ccc(O)cc3)CC2)nc1-c1cc(Cl)ccc1OC(F)F)c1cnn2cccnc12` [Example 91, N-[3-[5-chloro-2-(difluoromethoxy)phenyl]-1-[2-[4-[2-(4-hydroxyphenyl)ethyl-amino]-1-piperidyl]-2-oxo-ethyl]pyrazol-4-yl]pyrazolo[1,5-a]pyrimidine-3-carboxamide] are 1.15 nM, 0.75 nM and 149 nM.
On the same counts, the results for `CC(C)CN1CCC(n2cc(NC(=O)c3c(N)nn4cccnc34)c(-c3cc(Cl)ccc3OC(F)F)n2)CC1` [Example 174, 2-amino-N-[3-[5-chloro-2-(difluoromethoxy)phenyl]-1-(1-isobutyl-4-piperidyl)pyrazol-4-yl]pyrazolo[1,5-a]pyrimidine-3-carboxamide] are 0.09 nM, 0.67 nM and 12.3 nM.
The corresponding values for `O=C(Nc1cn(CC(=O)N2C[C@H]3CN(CCCOC(=O)N4CCOCC4)C[C@H]3C2)nc1-c1cc(Cl)ccc1OC(F)F)c1cnn2cccnc12` [Example 51, 3-[(3aR,6aS)-5-[2-[3-[5-chloro-2-(difluoromethoxy)phenyl]-4-(pyrazolo[1,5-a]pyrimidine-3-carbonylamino)pyrazol-1-yl]acetyl]-1,3,3a,4,6,6a-hexahydropyrrolo[3,4-c]pyrrol-2-yl]propyl morpholine-4-carboxylate] are 1.06 nM, 1.09 nM and 77.9 nM.
For the compound `O=C(Nc1cn(C2CCN(CCCN3CCS(=O)(=O)CC3)CC2)nc1-c1cc(Cl)ccc1OC(F)F)c1cnn2cccnc12` [Example 161, N-[3-[5-chloro-2-(difluoromethoxy)phenyl]-1-[1-[3-(1,1-dioxo-1,4-thiazinan-4-yl)propyl]-4-piperidyl]pyrazol-4-yl]pyrazolo[1,5-a]pyrimidine-3-carboxamide], the values for the Ki in assay [1] and in assay [2] were 0.13 nM and 1.23 nM, respectively. Moreover, the EC50 in assay [3] was determined as 22.3 nM.
On the same counts, the results for `CCCCN(C)C1CCN(c2nc(-c3cc(Cl)ccc3OC(F)F)c(NC(=O)c3cnn4cccnc34)s2)CC1` [Example 199, N-[2-[4-[butyl(methyl)amino]-1-piperidyl]-4-[5-chloro-2-(difluoromethoxy)phenyl]thiazol-5-yl]pyrazolo[1,5-a]pyrimidine-3-carboxamide] are 1.07 nM, 1.22 nM and 7.3 nM.
On the same counts, the results for `CN(CC(F)(F)F)C1CCN(C(=O)C2CCN(c3nc(-c4cc(Cl)ccc4OC(F)F)c(NC(=O)c4cnn5cccnc45)s3)CC2)CC1` [Example 202, N-[4-[5-chloro-2-(difluoromethoxy)phenyl]-2-[4-[4-[methyl(2,2,2-trifluoroethyl)amino]piperidine-1-carbonyl]-1-piperidyl]thiazol-5-yl]pyrazolo[1,5-a]pyrimidine-3-carboxamide] are 1.82 nM, 1.1 nM and 15.8 nM.
The corresponding values for `Nc1nn2cccnc2c1C(=O)Nc1cn(C2CCN(CCOCc3ccccc3)CC2)nc1-c1cc(Cl)ccc1OC(F)F` [Example 180, 2-amino-N-[1-[1-(2-benzyloxyethyl)-4-piperidyl]-3-[5-chloro-2-(difluoromethoxy)phenyl]pyrazol-4-yl]pyrazolo[1,5-a]pyrimidine-3-carboxamide] are 0.35 nM, 1.25 nM and 38.4 nM.
Turning to `O=C(Nc1cn(C2CCNCC2)nc1-c1cc(Cl)ccc1OC(F)F)c1cnn2cccnc12` [Example 1, Pyrazolo[1,5-a]pyrimidine-3-carboxylic acid [3-(5-chloro-2-difluoromethoxyphenyl)-1-piperidin-4-yl-1H-pyrazol-4-yl]amide hydrochloride], the Ki is 0.46 nM in assay [1] and 1.62 nM in assay [2]. For the same compound, in assay [3], the EC50 came out at 21.1 nM.
Turning to `CN1C[C@@H]2[C@H](C1)[C@H](CO)N(C(=O)Cn1cc(NC(=O)c3cnn4cccnc34)c(-c3cc(Cl)ccc3OC(F)F)n1)[C@@H]2c1ccccc1` [Example 37, N-[1-[2-[(3aS,4S,6R,6aR)-6-(hydroxymethyl)-2-methyl-4-phenyl-1,3,3a,4,6,6a-hexahydropyrrolo[3,4-c]pyrrol-5-yl]-2-oxo-ethyl]-3-[5-chloro-2-(difluoromethoxy)phenyl]pyrazol-4-yl]pyrazolo[1,5-a]pyrimidine-3-carboxamide], the inhibitory constant (Ki) was found to be 0.78 nM in assay [1] and 1.1 nM in assay [2]. Moreover, the EC50 in assay [3] is 11.8 nM.
On the same counts, the results for `CN(Cc1ccc(Cl)c(Cl)c1)C1CCN(C(=O)Cn2cc(NC(=O)c3cnn4cccnc34)c(-c3cc(Cl)ccc3OC(F)F)n2)CC1` [Example 121, N-[3-[5-chloro-2-(difluoromethoxy)phenyl]-1-[2-[4-[(3,4-dichlorophenyl)methyl-methyl-amino]-1-piperidyl]-2-oxo-ethyl]pyrazol-4-yl]pyrazolo[1,5-a]pyrimidine-3-carboxamide] are 0.31 nM, 0.24 nM and 140 nM.
On the same counts, the results for `O=C(Nc1cn(CC(=O)N2CCC(CN3CCC(F)(F)CC3)(c3ccccc3)CC2)nc1-c1cc(Cl)ccc1OC(F)F)c1cnn2cccnc12` [Example 111, N-[3-[5-chloro-2-(difluoromethoxy)phenyl]-1-[2-[4-[(4,4-difluoro-1-piperidyl)methyl]-4-phenyl-1-piperidyl]-2-oxo-ethyl]pyrazol-4-yl]pyrazolo[1,5-a]pyrimidine-3-carboxamide] are 10.6 nM, 3.1 nM and 203 nM.
On the same counts, the results for `Nc1nn2cccnc2c1C(=O)Nc1cn(CC(=O)N2C[C@H]3CN(CC4CCC(F)(F)CC4)C[C@H]3C2)nc1-c1cc(Cl)ccc1OC(F)F` [Example 58, N-[1-[2-[(3aS,6aR)-2-[(4,4-difluorocyclohexyl)methyl]-1,3,3a,4,6,6a-hexahydropyrrolo[3,4-c]pyrrol-5-yl]-2-oxo-ethyl]-3-[5-chloro-2-(difluoromethoxy)phenyl]pyrazol-4-yl]-2-amino-pyrazolo[1,5-a]pyrimidine-3-carboxamide] are 0.33 nM, 0.6 nM and 25.6 nM.
As to `CN(CC1(C#N)CCCCC1)C1CCN(C(=O)Cn2cc(NC(=O)c3cnn4cccnc34)c(-c3cc(Cl)ccc3OC(F)F)n2)CC1` [Example 114, N-[3-[5-chloro-2-(difluoromethoxy)phenyl]-1-[2-[4-[(1-cyanocyclohexyl)methyl-methyl-amino]-1-piperidyl]-2-oxo-ethyl]pyrazol-4-yl]pyrazolo[1,5-a]pyrimidine-3-carboxamide], the Ki in assay [1] worked out at 1.34 nM; in assay [2] it was 0.52 nM. The EC50 in assay [3] came out at 15.3 nM.
On the same counts, the results for `Nc1nn2cccnc2c1C(=O)Nc1cn(C2CCN(CCCCc3ccccc3)CC2)nc1-c1cc(Cl)ccc1OC(F)F` [Example 179, 2-amino-N-[3-[5-chloro-2-(difluoromethoxy)phenyl]-1-[1-(4-phenylbutyl)-4-piperidyl]pyrazol-4-yl]pyrazolo[1,5-a]pyrimidine-3-carboxamide] are 0.9 nM, 3.04 nM and 130 nM.
The corresponding values for `CN(CCc1ccccn1)C1CCN(C(=O)Cn2cc(NC(=O)c3cnn4cccnc34)c(-c3cc(Cl)ccc3OC(F)F)n2)CC1` [Example 86, N-[3-[5-chloro-2-(difluoromethoxy)phenyl]-1-[2-[4-[methyl-[2-(2-pyridyl)ethyl]amino]-1-piperidyl]-2-oxo-ethyl]pyrazol-4-yl]pyrazolo[1,5-a]pyrimidine-3-carboxamide] are 1.6 nM, 0.72 nM and 25.2 nM.
The corresponding values for `CS(=O)(=O)CCCN1C[C@@H]2CN(C(=O)Cn3cc(NC(=O)c4cnn5cccnc45)c(-c4cc(Cl)ccc4OC(F)F)n3)C[C@@H]2C1` [Example 27, N-[1-[2-[(3aS,6aR)-2-(3-methylsulfonylpropyl)-1,3,3a,4,6,6a-hexahydropyrrolo[3,4-c]pyrrol-5-yl]-2-oxo-ethyl]-3-[5-chloro-2-(difluoromethoxy)phenyl]pyrazol-4-yl]pyrazolo[1,5-a]pyrimidine-3-carboxamide] are 0.55 nM, 0.46 nM and 144 nM.
With `O=C(Nc1cn(CC(=O)N2C[C@H]3CN(CCCN4CCOC4=O)C[C@H]3C2)nc1-c1cc(Cl)ccc1OC(F)F)c1cnn2cccnc12` [Example 32, N-[1-[2-[(3aS,6aR)-2-[3-(2-oxooxazolidin-3-yl)propyl]-1,3,3a,4,6,6a-hexahydropyrrolo[3,4-c]pyrrol-5-yl]-2-oxo-ethyl]-3-[5-chloro-2-(difluoromethoxy)phenyl]pyrazol-4-yl]pyrazolo[1,5-a]pyrimidine-3-carboxamide], the Ki in assay [1] worked out at 0.5 nM; in assay [2] it was 0.46 nM. The EC50 in assay [3] came to 98.5 nM.
The corresponding values for `CN1CC[C@H](n2cc(NC(=O)c3c(N)nn4cccnc34)c(-c3cc(Cl)ccc3OC(F)F)n2)C1` [Example 182, 2-amino-N-[3-[5-chloro-2-(difluoromethoxy)phenyl]-1-[(3S)-1-methylpyrrolidin-3-yl]pyrazol-4-yl]pyrazolo[1,5-a]pyrimidine-3-carboxamide] are 0.2 nM, 0.49 nM and 8.9 nM.

For the origin of these results see patent US9346815B2, “5-chloro-2-difluoromethoxyphenyl pyrazolopyrimidine compounds, compositions and methods of use thereof” (Genentech, Inc., priority 2014, dated 2016).
